# Biological target: Human Factor D (Homo sapiens (Human), UniProt P00746)
# Experiment: Human Factor D Assay
# Format: biochemical
# Conditions: Human Factor D assay of Example 8; Table 2; read-out: IC50
# Procedure, shortened: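 Thioesterase activity monitored with Z-L-Lys-SBzl plus Ellman's reagent (DTNB), each 100 μM final, after 5 min room-temperature compound preincubation of 80 nM human serum Factor D in pH 7.5 Tris (50 mM)/1M NaCl.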
# Chain of Human Factor D (P00746 26-253): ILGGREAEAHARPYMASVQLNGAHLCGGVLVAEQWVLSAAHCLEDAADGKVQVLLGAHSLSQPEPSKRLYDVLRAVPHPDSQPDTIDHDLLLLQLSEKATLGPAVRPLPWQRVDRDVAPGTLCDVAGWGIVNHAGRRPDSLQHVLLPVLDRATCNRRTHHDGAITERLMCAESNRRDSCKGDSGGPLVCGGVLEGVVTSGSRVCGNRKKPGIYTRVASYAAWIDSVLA
row,SMILES,IC50 [µM]
1,"CC(=O)c1nn(CC(=O)N2C[C@H](F)C[C@H]2C(=O)Nc2cccc(Br)n2)c2ccc(-c3cnc4cc(C(=O)O)nn4c3)cc12 [Compound 289, 6-(3-acetyl-1-(2-((2S,4R)-2-(6-bromopyridin-2-ylcarbamoyl)-4-fluoropyrrolidin-1-yl)-2-oxoethyl)-1H-indazol-5-yl)pyrazolo[1,5-a]pyrimidine-2-carboxylic acid]",< 1
2,"COCCOCCNC(=O)c1cc2ncc(-c3ccc4c(c3)c(C(C)=O)nn4CC(=O)N3C[C@H](F)C[C@H]3C(=O)Nc3cccc(Br)n3)cn2n1 [Compound 290, 6-(3-acetyl-1-(2-((2S,4R)-2-(6-bromopyridin-2-ylcarbamoyl)-4-fluoropyrrolidin-1-yl)-2-oxoethyl)-1H-indazol-5-yl)-N-(2-(2-methoxyethoxy)ethyl)pyrazolo[1,5-a]pyrimidine-2-carboxamide]",< 1
3,"CC(=O)c1nn(CC(=O)N2C[C@H](F)C[C@H]2C(=O)Nc2cccc(Br)n2)c2ccc(-c3n[nH]c4ccsc34)cc12 [Compound 291, (2S,4R)-1-(2-(3-Acetyl-5-(1H-thieno[3,2-c]pyrazol-3-yl)-1H-indazol-1-yl)acetyl)-N-(6-bromopyridin-2-yl)-4-fluoropyrrolidine-2-carboxamide]",< 1
4,"CC(=O)n1cc(NC(=O)N2C[C@H](F)C[C@H]2C(=O)Nc2cccc(Br)n2)c2ccc(-c3cnc(C)nc3)cc21 [Compound 292, (2S,4R)-N1-(1-acetyl-6-(2-methylpyrimidin-5-yl)-1H-indol-3-yl)-N2-(6-bromopyridin-2-yl)-4-fluoropyrrolidine-1,2-dicarboxamide]",< 1
5,CC(=O)n1cc(NC(=O)N2C[C@H](F)C[C@H]2C(=O)Nc2cccc(-c3ccccc3Cl)c2F)c2ccc(-c3cnc(C)nc3)cc21 [Compound 293],< 1
6,"CC(=O)c1nn(CC(=O)N2CC=C[C@H]2C(=O)Nc2cccc(Br)n2)c2ccc(-c3cnc(C)nc3)cc12 [Compound 294, (S)-1-(2-(3-acetyl-5-(2-methylpyrimidin-5-yl)-1H-indazol-1-yl)acetyl)-N-(6-bromopyridin-2-yl)-2,5-dihydro-1H-pyrrole-2-carboxamide]",< 1
7,"CC(=O)c1nn(CC(=O)N2C[C@H](F)C[C@H]2C(=O)Nc2cccc(-c3cccc(S(C)(=O)=O)c3)c2F)c2ccc(-c3cnc(C)nc3)cc12 [Compound 295, (2S,4R)-1-(2-(3-Acetyl-5-(2-methylpyrimidin-5-yl)-1H-indazol-1-yl)acetyl)-4-fluoro-N-(2-fluoro-3′-(methylsulfonyl)-[1,1′-biphenyl]-3-yl)pyrrolidine-2-carboxamide]",< 1
8,"CC(=O)c1nn(CC(=O)N2C[C@H](F)C[C@H]2C(=O)Nc2cccc(-c3ccccc3Cl)c2F)c2ccc(-c3cnc4cc(C)nn4c3)cc12 [Compound 296, (2S,4R)-1-(2-(3-acetyl-5-(2-methylpyrazolo[1,5-a]pyrimidin-6-yl)-1H-indazol-1-yl)acetyl)-N-(2′-chloro-2-fluorobiphenyl-3-yl)-4-fluoropyrrolidine-2-carboxamide]",< 1
9,CC(=O)c1nn(CC(=O)N2C[C@H](F)C[C@H]2C(=O)Nc2cccc(Br)n2)c2ccc(-c3nc4c(s3)CCCC4)cc12 [Compound 297],> 10
10,"CC(=O)c1cn(CC(=O)N2[C@@H]3C[C@@H]3C[C@H]2C(=O)Nc2cccc(Br)n2)c2ccc(-c3cnc4cc(C)nn4c3)cc12 [Compound 298, (1R,3S,5R)-2-(2-(3-acetyl-5-(2-methylpyrazolo[1,5-a]pyrimidin-6-yl)-1H-indol-1-yl)acetyl)-N-(6-bromopyridin-2-yl)-2-azabicyclo[3.1.0] hexane-3-carboxamide]",< 1
11,"CC(=O)c1cn(CC(=O)N2C[C@H](F)C[C@H]2C(=O)NCc2cccc(Cl)c2F)c2ccc(-c3cnc4cc(C)nn4c3)cc12 [Compound 299, (2S,4R)-1-(2-(3-acetyl-5-(2-methylpyrazolo[1,5-a]pyrimidin-6-yl)-1H-indol-1-yl)acetyl)-N-(3-chloro-2-fluorobenzyl)-4-fluoropyrrolidine-2-carboxamide]",< 1
12,"CC(=O)c1cn(CC(=O)N2C[C@H](F)C[C@H]2C(=O)Nc2cccc(-c3ccccc3Cl)c2F)c2ccc(-c3cnc4cc(C)nn4c3)cc12 [Compound 300, (2S,4R)-1-(2-(3-acetyl-5-(2-methylpyrazolo[1,5-a]pyrimidin-6-yl)-1H-indol-1-yl)acetyl)-N-(2′-chloro-2-fluorobiphenyl-3-yl)-4-fluoropyrrolidine-2-carboxamide]",< 1
13,"CC(=O)c1cn(CC(=O)N2C[C@H](F)C[C@H]2C(=O)Nc2cccc(C(F)(F)F)n2)c2ccc(-c3cnc4cc(C)nn4c3)cc12 [Compound 301, (2S,4R)-1-(2-(3-acetyl-5-(2-methylpyrazolo[1,5-a]pyrimidin-6-yl)-1H-indol-1-yl)acetyl)-4-fluoro-N-(6-(trifluoromethyl)pyridin-2-yl)pyrrolidine-2-carboxamide]",< 1
14,"CC(=O)c1nn(CC(=O)N2C[C@H](F)C[C@H]2C(=O)Nc2cccc(Br)n2)c2ccc(-c3cnc4cccnn34)cc12 [Compound 302, (2S,4R)-1-(2-(3-acetyl-5-(imidazo[1,2-b]pyridazin-3-yl)-1H-indazol-1-yl)acetyl)-N-(6-bromopyridin-2-yl)-4-fluoropyrrolidine-2-carboxamide]",< 1
15,"CC(=O)c1nn(CC(=O)N2C[C@H](F)C[C@H]2C(=O)Nc2cccc(Br)n2)c2ccc(-c3ccc4nccn4n3)cc12 [Compound 303, (2S,4R)-1-(2-(3-acetyl-5-(imidazo[1,2-b]pyridazin-6-yl)-1H-indazol-1-yl)acetyl)-N-(6-bromopyridin-2-yl)-4-fluoropyrrolidine-2-carboxamide]",< 1
16,"CC(=O)c1nn(CC(=O)N2C[C@H](F)C[C@H]2C(=O)Nc2cccc(Br)n2)c2ccc(-c3cnn4ccnc4c3)cc12 [Compound 304, (2S,4R)-1-(2-(3-acetyl-5-(imidazo[1,2-b]pyridazin-7-yl)-1H-indazol-1-yl)acetyl)-N-(6-bromopyridin-2-yl)-4-fluoropyrrolidine-2-carboxamide]",< 1
17,"CC(=O)c1nn(CC(=O)N2C[C@H](F)C[C@H]2C(=O)Nc2cccc(-c3cc(F)ccc3S(C)(=O)=O)c2F)c2ccc(-c3cnc(C)nc3)cc12 [Compound 305, (2S,4R)-1-(2-(3-Acetyl-5-(2-methylpyrimidin-5-yl)-1H-indazol-1-yl)acetyl)-N-(2,5′-difluoro-2′-(methylsulfonyl)-[1,1′-biphenyl]-3-yl)-4-fluoropyrrolidine-2-carboxamide]",< 1
18,"CC(=O)c1nn(CC(=O)N2C[C@H](F)C[C@H]2C(=O)Nc2cncc(Br)n2)c2ccc(-c3cnc4cc(C)nn4c3)cc12 [Compound 306, (2S,4R)-1-(2-(3-acetyl-5-(2-methylpyrazolo[1,5-a]pyrimidin-6-yl)-1H-indazol-1-yl)acetyl)-N-(6-bromopyrazin-2-yl)-4-fluoropyrrolidine-2-carboxamide]",< 1
19,"Cc1ncc(-c2ccc3c(c2)c(C(N)=O)cn3CC(=O)N2C[C@H](F)C[C@H]2C(=O)Nc2cccc(Br)n2)cn1 [Compound 307, 1-(2-((2S,4R)-2-(6-bromopyridin-2-ylcarbamoyl)-4-fluoropyrrolidin-1-yl)-2-oxoethyl)-5-(2-methylpyrimidin-5-yl)-1H-indole-3-carboxamide]",< 1
20,"CC(=O)c1nn(CC(=O)N2CCS[C@H]2C(=O)Nc2cccc(Br)n2)c2ccc(-c3cnc(C)nc3)cc12 [Compound 308, (S)-3-(2-(3-acetyl-5-(2-methylpyrimidin-5-yl)-1H-indazol-1-yl)acetyl)-N-(6-bromopyridin-2-yl)thiazolidine-2-carboxamide]",< 1
21,"CC(=O)c1nn(CC(=O)N2C[C@H](F)C[C@H]2C(=O)Nc2cccc(Br)n2)c2ccc(-c3cnc4n3CCCC4)cc12 [Compound 309, (2S,4R)-1-(2-(3-acetyl-5-(5,6,7,8-tetrahydroimidazo [1,2-a]pyridin-3-yl)-1H-indazol-1-yl)acetyl)-N-(6-bromopyridin-2-yl)-4-fluoropyrrolidine-2-carboxamide]",< 1
22,"CC(=O)c1cn(CC(=O)N2C[C@H](F)C[C@H]2C(=O)Nc2cncc(Br)n2)c2ccc(-c3cnc4cc(C)nn4c3)cc12 [Compound 310, (2S,4R)-1-(2-(3-acetyl-5-(2-methylpyrazolo[1,5-a]pyrimidin-6-yl)-1H-indol-1-yl)acetyl)-N-(6-bromopyrazin-2-yl)-4-fluoropyrrolidine-2-carboxamide]",< 1
23,"CC(=O)c1nn(CC(=O)N2C[C@H](F)C[C@H]2C(=O)Nc2cccc(Br)n2)c2ccc(-c3ccc4nc(C)nn4c3)cc12 [Compound 311, (2S,4R)-1-(2-(3-acetyl-5-(2-methyl-[1,2,4]triazolo[1,5-a]pyridin-6-yl)-1H-indazol-1-yl)acetyl)-N-(6-bromopyridin-2-yl)-4-fluoropyrrolidine-2-carboxamide]",< 1
24,"CC(=O)c1nn(CC(=O)N2CSC[C@H]2C(=O)Nc2cccc(Br)n2)c2ccc(-c3cnc(C)nc3)cc12 [Compound 312, (R)-3-(2-(3-acetyl-5-(2-methylpyrimidin-5-yl)-1H-indazol-1-yl)acetyl)-N-(6-bromopyridin-2-yl)thiazolidine-4-carboxamide]",< 1
25,"CC(=O)c1nn(CC(=O)N2C[C@H](F)C[C@H]2C(=O)Nc2cncc(C(F)(F)F)n2)c2ccc(-c3cnc4cc(C)nn4c3)cc12 [Compound 313, (2S,4R)-1-(2-(3-acetyl-5-(2-methylpyrazolo[1,5-a]pyrimidin-6-yl)-1H-indazol-1-yl)acetyl)-4-fluoro-N-(6-(trifluoromethyl)pyrazin-2-yl)pyrrolidine-2-carboxamide]",< 1
26,"Cc1ncc(-c2cc3c(s2)c(C(N)=O)nn3CC(=O)N2C[C@H](F)C[C@H]2C(=O)Nc2cccc(-c3ccccc3Cl)c2F)cn1 [Compound 314, 1-(2-((2S,4R)-2-((2′-Chloro-2-fluoro-[1,1′-biphenyl]-3-yl)carbamoyl)-4-fluoropyrrolidin-1-yl)-2-oxoethyl)-5-(2-methylpyrimidin-5-yl)-1H-thieno[3,2-c]pyrazole-3-carboxamide]",< 1

# Reference: patent US10287301B2 (Achillion Pharmaceuticals, Inc., priority 2015, dated 2019)
